Data on 8 compounds can be found in patent US8759333B2, “Di-azetidinyl diamide as monoacylglycerol lipase inhibitors” (Janssen Pharmaceutica, NV, priority 2010, dated 2014).

Structures are written as SMILES.

The target in one experiment is T1, mutant MGL (Homo sapiens, UniProt Q99685, L169S/L176S).
T1 construct: purified mutant MGL (mut-MGLL 11-313 L179S L186S)
T1 sequence (Q99685 1-303 L169S/L176S): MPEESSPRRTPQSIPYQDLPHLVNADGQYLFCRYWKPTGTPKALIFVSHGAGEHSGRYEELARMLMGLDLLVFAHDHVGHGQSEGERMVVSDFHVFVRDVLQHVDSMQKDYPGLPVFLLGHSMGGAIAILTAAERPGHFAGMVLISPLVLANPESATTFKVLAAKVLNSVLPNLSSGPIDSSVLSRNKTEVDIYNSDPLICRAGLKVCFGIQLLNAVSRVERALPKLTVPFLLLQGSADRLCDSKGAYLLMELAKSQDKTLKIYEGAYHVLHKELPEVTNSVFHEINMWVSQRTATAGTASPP
In words: MGL ThermoFluor Assay - Mutant. Type of experiment: binding. Conditions: 0.07 mg/ml mutant MGL, 100 μM ANS, pH 7.0. On the procedure: The ThermoFluor (TF) assay is a 384-well plate-based binding assay that measures thermal stability of proteins^1,2. The experiments were carried out using instruments available from Johnson & Johnson Pharmaceutical Research & Development, LLC. TF dye used in all experiments was 1,8-ANS (Invitrogen: A-47). Final TF assay conditions used for MGL studies were 0.07 mg/ml of mutant MGL, 100 μM ANS, 200 mM NaCl, 0.001% Tween-20 in 50 mM PIPES (pH=7.0).
Screening compound plates contained 100% DMSO compound solutions at a single concentration. […] Columns 12 and 24 were used as DMSO reference and contained no compound. […] Following compound dispension, protein and dye solutions were added to achieve the final assay volume of 3 μL.
Bar-coded assay plates were robotically loaded onto a thermostatically controlled PCR-type thermal block and then heated from 40 to 90° C. degrees at a ramp-rate of 1° C./min for all experiments. Fluorescence was measured by continuous illumination with UV light (Hamamatsu LC6), supplied via fiber optics and filtered through a band-pass filter (380-400 nm; >60D cutoff). Fluorescence emission of the entire 384-well plate was detected by measuring light intensity using a CCD camera (Sensys, Roper Scientific) filtered to detect 500±25 nm, resulting in simultaneous and independent readings of all 384 wells. A single image with 20-sec exposure time was collected at each temperature, and the sum of the pixel intensity in a given area of the assay plate was recorded vs temperature and fit to standard equations to yield the Tm^1. • 1.
The Kd values for certain compounds of Formula (I) were determined from a fit of the equation to the concentration-response plot of the fractional activity as a function of […]. For some experiments, quantitative NMR spectroscopy (qNMR) was used to measure concentration of the initial 100% DMSO compound solutions and, using the same fitting method, qKd values were determined.

Another experiment has as its target T2, MGL (Rattus norvegicus, UniProt Q8R431).
T2 construct: one g rat brain was homogenized using a Polytron homogenizer; from tissue; host or cells: rat brain homogenate
T2 sequence (Q8R431 1-303): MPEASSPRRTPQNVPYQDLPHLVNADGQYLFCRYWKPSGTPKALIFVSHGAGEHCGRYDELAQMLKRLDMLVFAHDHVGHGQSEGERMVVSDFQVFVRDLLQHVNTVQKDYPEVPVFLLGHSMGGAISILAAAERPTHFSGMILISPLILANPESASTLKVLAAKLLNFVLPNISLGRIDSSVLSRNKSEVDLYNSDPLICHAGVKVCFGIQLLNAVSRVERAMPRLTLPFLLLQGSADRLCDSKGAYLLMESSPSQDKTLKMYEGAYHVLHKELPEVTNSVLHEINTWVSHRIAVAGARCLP
In words: 2-AG Accumulation Assay in rat brain homogenate. Type of experiment: biochemical. Conditions: percent of vehicle; for activity at 10 µM: compound @10 µM, read-out: Rat Brain 2AG % VehCntrl (%) @10 µM; for activity at 1 µM: compound @1 µM, read-out: Rat Brain 2AG % VehCntrl (%) @1 µM.

Experiment [1] concerns the target T3, mutant MGL (mut-MGLL 11-313 L179S L186S) (Homo sapiens, UniProt Q99685, L169S/L176S).
T3 construct: purified mutant MGL (mut-MGLL 11-313 L179S L186S)
T3 sequence (Q99685 1-303 L169S/L176S): T1 sequence (Q99685 1-303 L169S/L176S)
The experiment is described as follows: MGL Enzyme Activity Assay, purified mutant MGL, 4MU-B substrate. It counts as biochemical. The settings on record: mutant MGL 5 nM, 4MU-B 10 μM, 37° C.; read-out: MGL mutant inh IC50. In outline:
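Purified mutant MGL (5 nM final) with 10 μM 4MU-B in 20 mM PIPES pH 7.0, 150 mM NaCl, 0.001% Tween 20; compounds 17 to 0.0003 μM final. Fluorescence (ex 335/em 440 nm) followed 5 min at 37 °C; IC50 from fit of fractional activity versus inhibitor concentration.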

By Kd is commonly meant a measure of binding affinity in units of concentration. What is called IC50 is the concentration needed to halve the response being measured.

On to `O=C(c1ccc2c(ccn2S(=O)(=O)c2ccccc2)c1)N1CC(N2CC(N3Cc4ccccc4C3=O)C2)C1` [Cpd 71, 2-(1′-{[1-(Phenylsulfonyl)-1H-indol-5-yl]carbonyl}-1,3′-biazetidin-3-yl)-2,3-dihydro-1H-isoindol-1-one], for which the affinity on mutant MGL, expressed as Kd, was 50 nM. For the same compound, on MGL, the activity at 10 µM turned out to be 400%. Besides, the IC50 in experiment [1] stood at 8 nM.
Regarding `O=C(c1sc2cc(F)ccc2c1Cl)N1CC(N2CC(N3Cc4ccccc4C3=O)C2)C1` [Cpd 100, 2-{1′-[(3-Chloro-6-fluoro-1-benzothiophen-2-yl)carbonyl]-1,3′-biazetidin-3-yl}-2,3-dihydro-1H-isoindol-1-one], at mutant MGL, the Kd was found to be 47 nM. Moreover, on MGL, the activity at 1 µM was determined as 208%. For the same compound, in experiment [1], the IC50 was less than 5 nM.
As to `O=C(c1cc2ccc(Br)cc2s1)N1CC(N2CC(N3Cc4ccccc4C3=O)C2)C1` [Cpd 87, 2-{1′-[(6-Bromo-1-benzothiophen-2-yl)carbonyl]-1,3′-biazetidin-3-yl}-2,3-dihydro-1H-isoindol-1-one], on mutant MGL, the Kd came out at 40 nM. For the same compound, the activity at 10 µM at MGL came to 250%. In experiment [1], the IC50 is 50 nM.
Consider `CS(=O)(=O)c1cccc(-c2ccc(C(=O)N3CC(N4CC(NC(=O)c5nccs5)C4)C3)cc2)c1` [Cpd 18, N-(1′-{[3′-(Methylsulfonyl)biphenyl-4-yl]carbonyl}-1,3′-biazetidin-3-yl)-1,3-thiazole-2-carboxamide], for which the Kd on mutant MGL is 215 nM. Moreover, the activity at 1 µM on MGL came to 218%. Besides, the IC50 in experiment [1] worked out at 59 nM.
The like results for `O=C(NC1CN(C2CN(C(=O)c3cc4c(C(F)(F)F)cccc4s3)C2)C1)c1nccs1` [Cpd 8, N-(1′-{[4-(Trifluoromethyl)-1-benzothiophen-2-yl]carbonyl}-1,3′-biazetidin-3-yl)-1,3-thiazole-2-carboxamide] were, in that order, 128 nM, 127% and 12 nM.
Regarding `O=C(c1cc2ccc(C(F)(F)F)cc2s1)N1CC(N2CC(N3Cc4ccccc4C3=O)C2)C1` [Cpd 81, 2-(1′-{[6-(Trifluoromethyl)-1-benzothiophen-2-yl]carbonyl}-1,3′-biazetidin-3-yl)-2,3-dihydro-1H-isoindol-1-one], binding at mutant MGL was put at a Kd of 16 nM. For the same compound, at MGL, the activity at 1 µM stood at 192% and the activity at 10 µM came out at 409%. Further, the IC50 in experiment [1] was found to be 19 nM.
Turning to `O=C(NC1CN(C2CN(C(=O)c3ccc4c(ccn4-c4ccc(F)cc4)c3)C2)C1)c1cscn1` [Cpd 11, N-(1′-{[1-(4-Fluorophenyl)-1H-indol-5-yl]carbonyl}-1,3′-biazetidin-3-yl)-1,3-thiazole-4-carboxamide], the Kd on mutant MGL worked out at 44 nM. Further, at MGL, the activity at 10 µM worked out at 220%. Further, the IC50 in experiment [1] is 15 nM.
For `O=C(c1ccc2c(ccn2-c2ccccc2)c1)N1CC(N2CC(N3Cc4ccccc4C3=O)C2)C1` [Cpd 85, 2-{1′-[(1-Phenyl-1H-indol-5-yl)carbonyl]-1,3′-biazetidin-3-yl}-2,3-dihydro-1H-isoindol-1-one], in that order: 25 nM, 693% and 36 nM.
